# From ChEMBL document CHEMBL3885881, “DrugMatrix”
# Species on record: Rattus norvegicus
# Test: DrugMatrix - Regimen: Daily Repeat
# Assay type: toxicity, organism-based, Sprague-Dawley
# Parameters: regimen Daily Repeat, gender Male, age 6-8 weeks
# Details: in vivo, iv, vehicle 100 % SALINE; for ABSOLUTE BASOPHIL / ABSOLUTE EOSINOPHIL / ABSOLUTE LYMPHOCYTE / ABSOLUTE MONOCYTE / ABSOLUTE SEGMENTED NEUTROPHIL / BASOPHIL / EOSINOPHIL / ERYTHROCYTE COUNT / HEMATOCRIT / HEMOGLOBIN / LEUKOCYTE COUNT / LYMPHOCYTE / MEAN CORPUSCULAR HEMOGLOBIN / MEAN CORPUSCULAR HEMOGLOBIN CONCENTRATION / MEAN CORPUSCULAR VOLUME / MONOCYTE / NEUTROPHIL / NUCLEATED RED BLOOD CELLS / PLATELET COUNT: tissue Blood; for ALANINE AMINOTRANSFERASE / ALBUMIN / ALKALINE PHOSPHATASE / ASPARTATE AMINOTRANSFERASE / BLOOD UREA NITROGEN / CARBON DIOXIDE / CHLORIDE / CHOLESTEROL / CREATINE PHOSPHOKINASE / CREATININE / GLUCOSE / LACTATE DEHYDROGENASE / LIPASE / PHOSPHORUS / POTASSIUM / SODIUM / TOTAL BILIRUBIN / TOTAL PROTEIN / URIC ACID: tissue Plasma
# [1] = 0 mg/kg, 72 h, dose level Control, time 3 day
# [2] = 0 mg/kg, 120 h, dose level Control, time 5 day
# [3] = […], 72 h, dose 0.15 mg/Kg, dose level Low, time 3 day
# [4] = […], 72 h, dose 1.5 mg/Kg, dose level High, time 3 day
smiles,measurement,setting,value
CCC1=C[C@@H]2CN(C1)Cc1c([nH]c3ccccc13)[C@@](C(=O)OC)(c1cc3c(cc1OC)N(C)[C@H]1[C@@](O)(C(=O)OC)[C@H](OC(C)=O)[C@]4(CC)C=CCN5CC[C@]31[C@@H]54)C2 [VINORELBINE],ABSOLUTE BASOPHIL,[1],0 CELLS/uL
same,ABSOLUTE EOSINOPHIL,[1],15.33 CELLS/uL
same,ABSOLUTE LYMPHOCYTE,[1],9513.5 CELLS/uL
same,ABSOLUTE MONOCYTE,[1],94.67 CELLS/uL
same,ABSOLUTE SEGMENTED NEUTROPHIL,[1],709.83 CELLS/uL
same,BASOPHIL,[1],0%
same,EOSINOPHIL,[1],0.17%
same,ERYTHROCYTE COUNT,[1],5.63 x10E6/uL
same,HEMATOCRIT,[1],34.63%
same,HEMOGLOBIN,[1],13.6 G/DL
same,LEUKOCYTE COUNT,[1],10.33 x10E3/uL
same,LYMPHOCYTE,[1],92%
same,MEAN CORPUSCULAR HEMOGLOBIN,[1],24.17 pg
same,MEAN CORPUSCULAR HEMOGLOBIN CONCENTRATION,[1],39.28 G/DL
same,MEAN CORPUSCULAR VOLUME,[1],61.57 fL
same,MONOCYTE,[1],0.83%
same,NEUTROPHIL,[1],7%
same,NUCLEATED RED BLOOD CELLS,[1],0 /100WBC
same,PLATELET COUNT,[1],903.17 x10E3/uL
same,ALANINE AMINOTRANSFERASE,[1],49.33 u/L
same,ALBUMIN,[1],4.27 G/DL
same,ALKALINE PHOSPHATASE,[1],400.83 u/L
same,ASPARTATE AMINOTRANSFERASE,[1],77.5 u/L
same,BLOOD UREA NITROGEN,[1],16.33 mg/dL
same,CARBON DIOXIDE,[1],29.33 mmol/L
same,CHLORIDE,[1],99.67 MEQ/L
same,CHOLESTEROL,[1],66.67 mg/dL
same,CREATINE PHOSPHOKINASE,[1],275.33 u/L
same,CREATININE,[1],0.18 mg/dL
same,GLUCOSE,[1],163.83 mg/dL
same,LACTATE DEHYDROGENASE,[1],125.33 u/L
same,LIPASE,[1],10 u/L
same,PHOSPHORUS,[1],12.12 mg/dL
same,POTASSIUM,[1],6.68 MEQ/L
same,SODIUM,[1],144.02 MEQ/L
same,TOTAL BILIRUBIN,[1],0.18 mg/dL
same,TOTAL PROTEIN,[1],5.87 G/DL
same,URIC ACID,[1],1.63 mg/dL
same,ABSOLUTE BASOPHIL,[2],0 CELLS/uL
same,ABSOLUTE EOSINOPHIL,[2],48.83 CELLS/uL
same,ABSOLUTE LYMPHOCYTE,[2],14562 CELLS/uL
same,ABSOLUTE MONOCYTE,[2],138.67 CELLS/uL
same,ABSOLUTE SEGMENTED NEUTROPHIL,[2],1733.83 CELLS/uL
same,BASOPHIL,[2],0%
same,EOSINOPHIL,[2],0.33%
same,ERYTHROCYTE COUNT,[2],5.89 x10E6/uL
same,HEMATOCRIT,[2],36.7%
same,HEMOGLOBIN,[2],14.42 G/DL
same,LEUKOCYTE COUNT,[2],16.48 x10E3/uL
same,LYMPHOCYTE,[2],88.83%
same,MEAN CORPUSCULAR HEMOGLOBIN,[2],24.52 pg
same,MEAN CORPUSCULAR HEMOGLOBIN CONCENTRATION,[2],39.3 G/DL
same,MEAN CORPUSCULAR VOLUME,[2],62.37 fL
same,MONOCYTE,[2],0.67%
same,NEUTROPHIL,[2],10.17%
same,NUCLEATED RED BLOOD CELLS,[2],0 /100WBC
same,PLATELET COUNT,[2],1076.5 x10E3/uL
same,ALANINE AMINOTRANSFERASE,[2],44.67 u/L
same,ALBUMIN,[2],4.23 G/DL
same,ALKALINE PHOSPHATASE,[2],357.33 u/L
same,ASPARTATE AMINOTRANSFERASE,[2],84.83 u/L
same,BLOOD UREA NITROGEN,[2],15.5 mg/dL
same,CARBON DIOXIDE,[2],27 mmol/L
same,CHLORIDE,[2],99.5 MEQ/L
same,CHOLESTEROL,[2],63.67 mg/dL
same,CREATINE PHOSPHOKINASE,[2],331.33 u/L
same,CREATININE,[2],0.18 mg/dL
same,GLUCOSE,[2],167.33 mg/dL
same,LACTATE DEHYDROGENASE,[2],320.17 u/L
same,LIPASE,[2],9.17 u/L
same,PHOSPHORUS,[2],12.05 mg/dL
same,POTASSIUM,[2],6.54 MEQ/L
same,SODIUM,[2],143.02 MEQ/L
same,TOTAL BILIRUBIN,[2],0.2 mg/dL
same,TOTAL PROTEIN,[2],6.23 G/DL
same,URIC ACID,[2],2.07 mg/dL
same,ABSOLUTE BASOPHIL,[3],0 CELLS/uL
same,ABSOLUTE EOSINOPHIL,[3],49.67 CELLS/uL
same,ABSOLUTE LYMPHOCYTE,[3],13595.67 CELLS/uL
same,ABSOLUTE MONOCYTE,[3],462 CELLS/uL
same,ABSOLUTE SEGMENTED NEUTROPHIL,[3],1292.67 CELLS/uL
same,BASOPHIL,[3],0%
same,EOSINOPHIL,[3],0.33%
same,ERYTHROCYTE COUNT,[3],5.91 x10E6/uL
same,HEMATOCRIT,[3],37.77%
same,HEMOGLOBIN,[3],14.97 G/DL
same,LEUKOCYTE COUNT,[3],15.4 x10E3/uL
same,LYMPHOCYTE,[3],87.67%
same,MEAN CORPUSCULAR HEMOGLOBIN,[3],25.3 pg
same,MEAN CORPUSCULAR HEMOGLOBIN CONCENTRATION,[3],39.63 G/DL
same,MEAN CORPUSCULAR VOLUME,[3],63.93 fL
same,MONOCYTE,[3],3%
same,NEUTROPHIL,[3],9%
same,NUCLEATED RED BLOOD CELLS,[3],0 /100WBC
same,PLATELET COUNT,[3],1301 x10E3/uL
same,ABSOLUTE BASOPHIL,[4],0 CELLS/uL
same,ABSOLUTE EOSINOPHIL,[4],0 CELLS/uL
same,ABSOLUTE LYMPHOCYTE,[4],5207.33 CELLS/uL
same,ABSOLUTE MONOCYTE,[4],23 CELLS/uL
same,ABSOLUTE SEGMENTED NEUTROPHIL,[4],236.33 CELLS/uL
same,BASOPHIL,[4],0%
same,EOSINOPHIL,[4],0%
same,ERYTHROCYTE COUNT,[4],5.25 x10E6/uL
same,HEMATOCRIT,[4],33.27%
same,HEMOGLOBIN,[4],13.3 G/DL
same,LEUKOCYTE COUNT,[4],5.47 x10E3/uL
same,LYMPHOCYTE,[4],95.33%
same,MEAN CORPUSCULAR HEMOGLOBIN,[4],25.4 pg
same,MEAN CORPUSCULAR HEMOGLOBIN CONCENTRATION,[4],40 G/DL
same,MEAN CORPUSCULAR VOLUME,[4],63.43 fL
same,MONOCYTE,[4],0.33%
same,NEUTROPHIL,[4],4.33%
same,NUCLEATED RED BLOOD CELLS,[4],0.33 /100WBC
same,PLATELET COUNT,[4],808.33 x10E3/uL
